Measured values from patent US7897619B2, “Heterocyclic modulators of PKB” (Amgen Inc., priority 2007, dated 2011).
Structures can show the parent of a compound that is named as a salt.

Molecular target: PKBα (Homo sapiens, UniProt P31749)
Assay: PKB kinase assay (P33-labeled ATP, synthetic peptide substrate, filter plate)
Assay type: biochemical
Details: PKBα enzyme (full length or kinase domain with pleckstrin domain deleted)
Source text: The kinase assay for evaluating PKB activity comprises active PKB enzymes, a PKB specific substrate, and P^33-labeled ATP. Two forms of PKBα enzymes were used, the full length PKBα and a kinase domain of PKBα with pleckstrin domain (amino acids 1-117) deleted. Both PKB enzymes were obtained from Upstate cell signaling solutions (Cat.# 14-276 and 14-341). The PKB substrate used is a synthetic peptide (ARKRERTYSFGHHA (SEQ ID NO: 1)) as described in Obata et al., J. Biol. Chem. 275 (46), 36108-36115 (2000). The phosphorylated substrate was captured by a phosphocellulose membrane filter plate (MILLIPORE) and measured by a Wallac Microbeta liquid scintillation counter (Perkin Elmer). Table 1 provides the IC50 values obtained for each of the examples with respect to PKBα.

PKBα, sequence (P31749 118-480 limits assumed): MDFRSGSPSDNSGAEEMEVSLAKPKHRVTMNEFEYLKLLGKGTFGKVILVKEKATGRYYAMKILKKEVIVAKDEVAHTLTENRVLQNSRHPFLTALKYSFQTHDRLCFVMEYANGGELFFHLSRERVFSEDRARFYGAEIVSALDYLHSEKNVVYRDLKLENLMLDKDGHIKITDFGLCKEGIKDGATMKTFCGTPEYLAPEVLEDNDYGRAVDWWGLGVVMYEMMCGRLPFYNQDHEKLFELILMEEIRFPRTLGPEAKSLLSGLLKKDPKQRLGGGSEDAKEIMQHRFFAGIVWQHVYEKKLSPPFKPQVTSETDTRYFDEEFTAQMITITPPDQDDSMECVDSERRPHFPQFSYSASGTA

| SMILES | IC50 [nM] |
| --- | --- |
| N[C@H](CNc1cnc(-c2ccc3cnccc3c2)s1)Cc1ccc(C(F)(F)F)cc1 [Example 41, N-((S)-2-Amino-3-(4-(trifluoromethyl)phenyl)propyl)-2-(isoquinolin-6-yl)thiazol-5-amine trifluoroacetate] | 50 to 1000 |
| N[C@H](CNc1cnn(-c2ccc3cnccc3c2)c1)Cc1ccc(C(F)(F)F)cc1 [Example 42, N-((S)-2-Amino-3-(4-(trifluoromethyl)phenyl)propyl)-1-(isoquinolin-6-yl)-1H-pyrazol-4-amine] | 50 to 1000 |
| N[C@H](CNc1nc(-c2ccc3cnccc3c2)ns1)Cc1ccc(C(F)(F)F)cc1 [Example 43, N-((S)-2-Amino-3-(4-(trifluoromethyl)phenyl)propyl)-3-(isoquinolin-6-yl)-1,2,4-thiadiazol-5-amine] | 50 to 1000 |
| N[C@H](CNc1nc(-c2ccc3c(c2)CC(=O)N3)ns1)Cc1ccc(C(F)(F)F)cc1 [Example 44, 5-(5-((S)-2-Amino-3-(4-(trifluoromethyl)phenyl)propylamino)-1,2,4-thiadiazol-3-yl)indolin-2-one] | 1000 to 10000 |
| N[C@H](CNc1nc(-c2ccc3[nH]ncc3c2)ns1)Cc1ccc(C(F)(F)F)cc1 [Example 45, N-((S)-2-Amino-3-(4-(trifluoromethyl)phenyl)propyl)-3-(1H-indazol-5-yl)-1,2,4-thiadiazol-5-amine] | 1000 to 10000 |
| N[C@H](CNc1cnn(-c2ccc3cnccc3c2)c1)Cc1ccc(Cl)cc1 [Example 46, N-((S)-2-Amino-3-(4-chlorophenyl)propyl)-1-(isoquinolin-6-yl)-1H-pyrazol-4-amine] | 50 to 1000 |
| N[C@H](CNc1nsc(-c2ccc3c(c2)CC(=O)N3)n1)Cc1ccc(C(F)(F)F)cc1 [Example 47, 5-(3-((S)-2-Amino-3-(4-(trifluoromethyl)phenyl)propylamino)-1,2,4-thiadiazol-5-yl)indolin-2-one] | 50 to 1000 |
| N[C@H](CCc1nc(-c2ccc3c(c2)CC(=O)N3)no1)Cc1ccc(C(F)(F)F)cc1 [Example 48, 5-(5-((R)-3-Amino-4-(4-(trifluoromethyl)phenyl)butyl)-1,2,4-oxadiazol-3-yl)indolin-2-one] | 50 to 1000 |
| N[C@@H](Cc1ccc(C(F)(F)F)cc1)c1nc(-c2ccc3c(c2)CC(=O)N3)no1 [Example 49, 5-(5-((S)-1-Amino-2-(4-(trifluoromethyl)phenyl)ethyl)-1,2,4-oxadiazol-3-yl)indolin-2-one] | 1000 to 10000 |
| N[C@H](CCn1cc(-c2ccc3[nH]c(=O)oc3c2)cn1)Cc1ccc(Cl)cc1 [Example 50, 6-(1-((S)-3-Amino-4-(4-chlorophenyl)butyl)-1H-pyrazol-4-yl)benzo[d]oxazol-2(3H)-one] | < 50 |
| N[C@H](CCn1cc(-c2ccc3c(c2)CC(=O)N3)cn1)Cc1ccc(Cl)cc1 [Example 51, 5-(1-((S)-3-Amino-4-(4-chlorophenyl)butyl)-1H-pyrazol-4-yl)indolin-2-one] | < 50 |
| N[C@H](CCn1cc(-c2ccc3[nH]ncc3c2)cn1)Cc1ccc(Cl)cc1 [Example 52, (2S)-4-(4-(1H-Indazol-5-yl)-1H-pyrazol-1-yl)-1-(4-chlorophenyl)butan-2-amine] | < 50 |
| Cc1n[nH]c2ccc(-c3cnn(CC[C@@H](N)Cc4ccc(Cl)cc4)c3)cc12 [Example 53, (2S)-1-(4-Chlorophenyl)-4-(4-(3-methyl-1H-indazol-5-yl)-1H-pyrazol-1-yl)butan-2-amine] | < 50 |
| Cn1c(=O)[nH]c2ccc(-c3cnn(CC[C@@H](N)Cc4ccc(Cl)cc4)c3)cc21 [Example 54, 6-(1-((S)-3-Amino-4-(4-chlorophenyl)butyl)-1H-pyrazol-4-yl)-1-methyl-1H-benzo[d]imidazol-2(3H)-one] | 50 to 1000 |
| N[C@H](CCn1cc(-c2ccc3cnc(F)cc3c2)cn1)Cc1ccc(Cl)cc1 [Example 55, (2S)-1-(4-Chlorophenyl)-4-(4-(3-fluoroisoquinolin-6-yl)-1H-pyrazol-1-yl)butan-2-amine] | < 50 |
| N[C@H](CCn1cc(-c2ccc3cnccc3c2)cn1)Cc1ccc(Cl)cc1 [Example 56, (2S)-1-(4-Chlorophenyl)-4-(4-(isoquinolin-6-yl)-1H-pyrazol-1-yl)butan-2-amine] | < 50 |
| N[C@H](CCn1cc(-c2ccc3cnccc3c2)cn1)Cc1ccc(C(F)(F)F)cc1 [Example 57, (2S)-4-(4-(Isoquinolin-6-yl)-1H-pyrazol-1-yl)-1-(4-(trifluoromethyl)phenyl)butan-2-amine] | < 50 |
| Cc1ccc(C[C@H](N)CCn2cc(-c3ccc4cnccc4c3)cn2)cc1 [Example 58, (2S)-4-(4-(Isoquinolin-6-yl)-1H-pyrazol-1-yl)-1-p-tolylbutan-2-amine] | 50 to 1000 |
| N[C@H](CCn1cc(-c2ccc3cnccc3c2)cn1)Cc1cccc(Cl)c1 [Example 59, (2S)-1-(3-Chlorophenyl)-4-(4-(isoquinolin-6-yl)-1H-pyrazol-1-yl)butan-2-amine] | 50 to 1000 |
| N[C@H](CCn1cc(-c2ccc3cnccc3c2)cn1)Cc1ccc(Cl)c(Cl)c1 [Example 60, (2S)-1-(3,4-Dichlorophenyl)-4-(4-(isoquinolin-6-yl)-1H-pyrazol-1-yl)butan-2-amine] | 50 to 1000 |
| N[C@H](CCn1cc(-c2ccc3cnccc3c2)cn1)Cc1ccc(F)c(F)c1 [Example 61, (2S)-1-(3,4-Difluorophenyl)-4-(4-(isoquinolin-6-yl)-1H-pyrazol-1-yl)butan-2-amine] | 50 to 1000 |
| N[C@H](CCn1cc(-c2ccc3cnccc3c2)cn1)Cc1ccc(F)cc1 [Example 62, (2S)-1-(4-Fluorophenyl)-4-(4-(isoquinolin-6-yl)-1H-pyrazol-1-yl)butan-2-amine] | 50 to 1000 |
| N[C@H](CCn1cc(-c2ccc3cnccc3c2)cn1)Cc1ccc(Cl)cc1Cl [Example 63, (2S)-1-(2,4-Dichlorophenyl)-4-(4-(isoquinolin-6-yl)-1H-pyrazol-1-yl)butan-2-amine] | 50 to 1000 |
| N[C@H](CCn1cc(-c2ccc3cnccc3c2)cn1)Cc1ccccc1 [Example 64, (2S)-4-(4-(Isoquinolin-6-yl)-1H-pyrazol-1-yl)-1-phenylbutan-2-amine] | 50 to 1000 |
| N[C@@H](Cc1ccc(C(F)(F)F)cc1)Cn1cc(-c2ccc3cnccc3c2)cn1 [Example 65, (2S)-1-(4-(Isoquinolin-6-yl)-1H-pyrazol-1-yl)-3-(4-(trifluoromethyl)phenyl)-propan-2-amine] | 50 to 1000 |
| N[C@H](CCc1nnc(-c2ccc3cnccc3c2)o1)Cc1ccc(C(F)(F)F)cc1 [Example 66, (2R)-4-(5-(Isoquinolin-6-yl)-1,3,4-oxadiazol-2-yl)-1-(4-(trifluoromethyl)phenyl)butan-2-amine] | 50 to 1000 |
| N[C@H](CCc1cn(-c2ccc3[nH]ncc3c2)nn1)Cc1ccc(C(F)(F)F)nc1 [Example 67, (2R)-4-(1-(1H-Indazol-5-yl)-1H-1,2,3-triazol-4-yl)-1-(6-(trifluoromethyl)pyridin-3-yl)butan-2-amine bistrifluoroacetate] | 50 to 1000 |
